We go through 10 molecules from ChEMBL document CHEMBL1201862, “PubChem BioAssay data set” (2004).

Assay in all cases: growth of human tumour cells (NCI), 48 h
In test [1] the test system is Hs-578T.
Test [2] concerns SF-295.
Test [3] has as its system HOP-62.
Test [4] has as its system NCI-H226.
The test system of test [5] is MCF7.
Test [6] has as its system PC-3.
In test [7] the test system is HT-29.
Test [8] deals with SK-MEL-5.
Test [9] relates to IGROV-1.
Test [10] concerns SK-MEL-28.
Test [11] has as its system M14.
The subject of test [12] is OVCAR-4.
Test [13] relates to HCT-116.
Test [14] has as its system EKVX.
Test [15] relates to Malme-3M.
The subject of test [16] is T47D.
For test [17], the system named is SF-268.
For test [18], the system named is SK-OV-3.
Test [19] relates to SR.

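Cells were grown in 96-well plates and exposed to each compound for 48 hours at five concentrations; endpoints were interpolated linearly between bracketing concentrations, or set to the highest concentration if not reached. Here, GI50 denotes the concentration required for 50% inhibition of growth.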 Activity calls are given as the source filed them. No stated cut-off is given here; in the data, active = GI50 up to about 1.1 µM and inactive = higher.

As for `Cc1ccc(C(=O)CCl)o1`, the GI50 in [1] is > 10 µM (inactive); in test [2], > 10 µM (inactive); in test [3] it was > 10 µM (inactive); in [4], > 10 µM (inactive); in [5], 3.52 µM (inactive); in test [6], > 10 µM (inactive). For the same molecule, the GI50 was 4.71 µM (inactive) in test [7]; > 7.96 µM (inactive) in [8]; > 9.68 µM (inactive) in test [9]; > 10 µM (inactive) in [10]; 3.86 µM (inactive) in [11]; 4.15 µM (inactive) in [12]. Further, the GI50 in [13] is 1.86 µM (inactive); in test [14], > 10 µM (inactive); in test [15], 3.18 µM (inactive); in test [16], 4.61 µM (inactive); in test [17] it was > 6.97 µM (inactive); in [18] it was > 10 µM (inactive). The GI50 in test [19] was 3.07 µM (inactive).

`CC1=C(C(=O)OC(C)C)C(c2ccccc2[N+](=O)[O-])C(C(=O)OC(CO[N+](=O)[O-])CO[N+](=O)[O-])=C(C)N1` (stereo not given): the GI50 in test [1] was 3.36 µM (inactive); in [2] it was 2.1 µM (inactive); in test [3] it was 3.07 µM (inactive); in test [4], 7.16 µM (inactive); in test [5] it was 3.55 µM (inactive); in test [6] it was 2.14 µM (inactive). Also, the GI50 was 2.81 µM (inactive) in test [7]; 2.7 µM (inactive) in test [8]; 5.26 µM (inactive) in test [9]; 4.01 µM (inactive) in test [10]; 3.74 µM (inactive) in test [11]; 2.12 µM (inactive) in test [12]. Besides, the GI50 in [13] is 2.55 µM (inactive); in test [14], 2.85 µM (inactive); in test [15], 3.91 µM (inactive); in [16], 4.99 µM (inactive); in [17] it was 2.51 µM (inactive); in [18] it was 3.15 µM (inactive). In addition, in [19], the GI50 is 18.6 µM (inactive).

Take `c1csc(-c2cc(-c3ccsc3)c(-c3ccsc3)s2)c1`: the GI50 is > 100 µM (inactive) in test [1]; > 100 µM (inactive) in test [2]; > 100 µM (inactive) in [3]; > 10 µM (inactive) in [4]; 24.8 µM (inactive) in [5]; > 100 µM (inactive) in [6]. Besides, the GI50 in test [7], in test [8], in test [9], in test [10], in test [11] and in [12] was > 100 µM (inactive) in each case. The GI50 was > 100 µM (inactive) in [13]; 8.15 µM (inactive) in test [14]; > 100 µM (inactive) in [15]; 3.49 µM (inactive) in test [16]; > 100 µM (inactive) in test [17]; > 100 µM (inactive) in [18]. For the same molecule, in [19], the GI50 was > 100 µM (inactive).

With `O=C1c2c(ccc3c2CCCC3)CC1Cc1ccc2c(c1)CCCC2` (stereo not given), the GI50 in test [1] is 20 µM (inactive); in [2], 33.8 µM (inactive); in [3] it was 87.7 µM (inactive); in test [4], > 100 µM (inactive); in test [5], 27.2 µM (inactive); in test [6], 45.5 µM (inactive). For the same molecule, the GI50 was 17.1 µM (inactive) in test [7]; 22.6 µM (inactive) in test [8]; > 100 µM (inactive) in [9]; > 100 µM (inactive) in [10]; 35.7 µM (inactive) in [11]; 28.8 µM (inactive) in [12]. Further, the GI50 is 25.5 µM (inactive) in test [13]; 45.5 µM (inactive) in test [14]; 54.8 µM (inactive) in test [15]; 0.787 µM (active) in test [16]; > 100 µM (inactive) in [17]; > 100 µM (inactive) in test [18]. Also, the GI50 in [19] is 9.08 µM (inactive).

`Cc1cc(=O)n2nc(CN3CCCCC3)sc2n1`: the GI50 in test [1], in [2], in [3], in test [4], in test [5] and in test [6] was > 100 µM (inactive) each time. Also, the GI50 in test [7], in test [8], in test [9], in test [10], in test [11] and in test [12] was > 100 µM (inactive) in each case. Moreover, the GI50 in test [13], in test [14], in test [15], in test [16], in [17] and in test [18] was > 100 µM (inactive) each time. In addition, the GI50 in test [19] was > 100 µM (inactive).

Consider `CC(=O)c1cc2ccccc2[n+]([O-])c1N`, for which the GI50 in test [1], in test [2], in test [3], in test [4], in test [5] and in test [6] was > 100 µM (inactive) in each case. The GI50 in test [7], in [8], in test [9], in test [10], in [11] and in test [12] was > 100 µM (inactive) throughout. Moreover, the GI50 in test [13], in [14], in [15], in test [16], in [17] and in test [18] was > 100 µM (inactive) throughout. For the same molecule, the GI50 in test [19] was > 100 µM (inactive).

In the case of `CC1(C)C(C(=O)OC(C#N)c2cccc(OCC(=O)OCc3ccccc3)c2)C1(C)C` (stereo not given), the GI50 in test [1] is > 100 µM (inactive); in test [2] it was > 100 µM (inactive); in test [3], > 100 µM (inactive); in test [4], > 100 µM (inactive); in test [5] it was 53 µM (inactive); in test [6], > 100 µM (inactive). Also, the GI50 in test [7] was > 100 µM (inactive); in test [8] it was > 100 µM (inactive); in test [9], > 100 µM (inactive); in [10], 63.2 µM (inactive); in test [11], 48.6 µM (inactive); in test [12] it was > 100 µM (inactive). The GI50 is 40.4 µM (inactive) in test [13]; > 100 µM (inactive) in test [14]; > 100 µM (inactive) in test [15]; 45.8 µM (inactive) in test [16]; > 100 µM (inactive) in [17]; > 100 µM (inactive) in [18]. For the same molecule, the GI50 in test [19] was 0.251 µM (active).

Regarding `O=[N+]([O-])/C=C/c1cn(CCCCCn2cc(/C=C/[N+](=O)[O-])c3ccccc32)c2ccccc12`, the GI50 in test [1] was 1.87 µM (inactive); in test [2], 9.89 µM (inactive); in test [3], 3.93 µM (inactive); in test [4], 0.805 µM (active); in [5] it was 0.408 µM (active); in test [6], 3.58 µM (inactive). For the same molecule, the GI50 in test [7] was 1.56 µM (inactive); in test [8], 1.75 µM (inactive); in [9] it was 2.23 µM (inactive); in test [10] it was 1.12 µM (active); in [11], 1.44 µM (inactive); in test [12], 2.44 µM (inactive). For the same molecule, the GI50 in [13] was 0.283 µM (active); in [14], 11.6 µM (inactive); in test [15], 3.54 µM (inactive); in [16], 8.22 µM (inactive); in [17], 2.18 µM (inactive); in [18] it was 23.2 µM (inactive). Moreover, the GI50 in [19] was 0.973 µM (active).

As for `C[C@]12CC[C@H]3[C@@H](CCC4=C[C@@H](OC5OCC(OC6OC(CO)C(O)C(O)C6O)C(O)C5O)CC[C@@]43C=O)[C@@]1(O)CCC2C1=CC(=O)OC1` (stereo not given in full), the GI50 was 0.522 µM (active) in test [1]; 0.638 µM (active) in test [2]; 0.431 µM (active) in test [3]; 2.15 µM (inactive) in [4]; 0.94 µM (active) in test [5]; 0.631 µM (active) in test [6]. The GI50 in test [7] was 0.832 µM (active); in test [8], 0.385 µM (active); in [9] it was 0.351 µM (active); in [10], 2.57 µM (inactive); in test [11] it was 1.21 µM (inactive); in test [12], 0.237 µM (active). Further, the GI50 was 0.322 µM (active) in test [13]; 0.441 µM (active) in [14]; 0.59 µM (active) in test [15]; 1.5 µM (inactive) in test [16]; 0.36 µM (active) in test [17]; 1.13 µM (inactive) in test [18]. Moreover, the GI50 in [19] was 0.221 µM (active).

Turning to `NC(=O)c1cc2ccc(O)cc2o/c1=N/NC(=O)c1ccccc1`, the GI50 was 81.3 µM (inactive) in [1]; > 100 µM (inactive) in test [2]; > 100 µM (inactive) in test [3]; 39.4 µM (inactive) in test [4]; > 100 µM (inactive) in [5]; 83.2 µM (inactive) in [6]. The GI50 in test [7] was > 100 µM (inactive); in [8], 39.8 µM (inactive); in test [9] it was 46.7 µM (inactive); in test [10], 76.4 µM (inactive); in test [11], 86.5 µM (inactive); in test [12], > 100 µM (inactive). In addition, the GI50 in [13] was 66.2 µM (inactive); in [14], > 100 µM (inactive); in [15], 84.3 µM (inactive); in test [16], 15.6 µM (inactive); in [17], > 100 µM (inactive); in test [18], 61.2 µM (inactive). Moreover, the GI50 in test [19] is 22.2 µM (inactive).
